Patent publication US20230090446A1, “ANTISENSE OLIGONUCLEOTIDE TARGETING LINC00518 FOR TREATING MELANOMA” (UNIVERSITE DE STRASBOURG, priority 2020, published 2023)

System: LINC00518
Experiment: LINC00518 expression by RT-qPCR in cells treated with MAPK pathway inhibitors
Settings: 501Mel and A375 cells, between 12-72 hours after treatment
Protocol: Activated Caspase 3 was measured by FACS.
Samples were taken at the indicated time points, total RNA was extracted, retrotranscribed and analyzed by qPCR for LINC00518 expression. B. LINC00518 RNA levels were quantified from scRNAseq of melanoma patient derived xenotransplants (PDXs) treated with Dabrafenib and Trametinib (GSE116237). […] LINC00518 RNA levels were quantified from RNA sequencing of melanoma patients treated with Durvalumab and Trametinib for 15 days (GSE158403). […] Cytoplasmic and mitochondrial RNA fractions were extracted, retrotranscribed and analyzed by qPCR for LINC00518 expression. […] Oxygen consumption rate (OCR) was measured using Agilent Seahorse. Basal and Maximal OCR and reserve capacity were calculated on the basis of OCR changes upon oligomycin (oligo), FCCP and Rotenone A (RotA) administration to the cells.
Total mRNA isolation was performed using the Genelute Mammalian Total RNA Miniprep Kit (Sigma) following manufacturer instructions, or using Trizol and isopropanol precipitation. […] Total and fractionated RNAs were treated with DNAsel following the TurboDnase free kit instructions (Thermofisher) and reversed transcribed using Superscript IV reverse transcriptase (Thermofisher) following manufacturer instructions. qRT-PCR was carried out with SYBR Green I (Roche) and monitored by a LightCycler 480 (Roche). […]

## CC(C)(C)c1nc(-c2cccc(NS(=O)(=O)c3c(F)cccc3F)c2F)c(-c2ccnc(N)n2)s1 [Dabrafenib]
  LINC00518 expression: up-regulation
